Data published in patent US20030124132A1 (University of Texas, published 2003).

Key:
[1] = test system: thrombin-antithrombin-complexes (TAT); experiment: Plasma thrombin-antithrombin-complexes (Enzygnost TAT micro-assay) three days after treatment; assay type: in vivo; conditions: tTF alone; tumor bearing mice, three days after i.v. treatment
Experimental: (§1) Mice were closely observed after treatment for clinical signs of toxicity and clinical status was documented at defined time points (5 minutes, 10 minutes, 15 minutes, 30 minutes. 1 hour, 2 hours, 24 hours, 48 hours, 72 hours). Blood samples were taken from the tail vein at 1 hour, 2 hours and 24 hours to measure TNFα blood levels. Three days after treatment, the mice were anesthetized, blood samples were taken from the vena cava for coagulation tests, and an autopsy was performed to document any changes in gross pathology. Tumors, lymph node metastases and the major normal organs (heart, lung, brain, liver, kidney, colon, spleen, pancreas) were harvested and prepared for histological analysis.
At the time of autopsy, citrated blood was sampled from the vena cava and thrombocyte-free plasma was prepared by centrifugation. […] Thrombin-Antithrombin-complexes were detected with the Enzygnost® TAT micro-assay (Dade-Behring, Marburg, Germany) according to the manufacturer's instructions. ATIII levels were determined using the Coamatic® antithrombin-assay (Haemocbrom, Essen, Germany) following the manufacturer's instructions. Changes in the blood levels of thrombin and plasmin were detected by mixing citrated plasma with the respective chromogenic substrates S2238 and S2403 (Haemochrom, Essen, Germany) and measuring the increase of the absorption at 405 nm by an ELISA reader.

L540 tumor blood vessels = experiment: Thrombosis of L540 tumor vessels by anti-VCAM-1·tTF coaguligand; assay type: in vivo, mice; conditions: equivalent quantities
Excerpt: Before coaguligand injection, tumors were viable, having a uniform morphology lacking regions of necrosis. […] Within four hours of coaguligand injection, 40-70% of blood vessels were thrombosed. despite the initial staining of only 20-30% of tumor blood vessels. The thrombosed vessels contained occlusive platelet aggregates, packed erythrocytes and fibrin. In several regions, the blood vessels had ruptured, spilling erythrocytes into the tumor interstitium.

F9 sarcoma tumors = experiment: Tumor tissue necrosis in F9 sarcoma mouse model; assay type: in vivo, balb/c nude mice; conditions: endotoxin-free tTF 4 μg; diluent 40-50% spontaneous necrosis
Experimental: 1×10^7 F9 sarcoma cells were injected subcutaneously into the right flank of balb/c nude mice. Subcutanous tumors were measured with a caliper in three perpendicular directions a, b, and c, and volumes calculated according to the formula V=π/6×a'b×c. Treatment was initiated when subcutaneous tumors reached a size of 150 to 300 μl.
Reagents were administered into the lateral tail vein.
Mice were closely observed after treatment for clinical signs of toxicity and clinical status was documented at defined time points. Three days after treatment, mice were sacrificed and tumors were harvested. Paraffin embedded tissues were stained with hematoxilin and eosin (H&E). Tissue sections were analyzed on a light microscope by two independent investigators and histological findings were documented. Tumor sections with necrotic areas were scanned with a GS-700 imaging densitometer (Biorad, Hercules, Calif.) and areas of necrosis were calculated as % of total section area.

bEnd 3 cells = experiment: Cell bound coagulation assay on stimulated endothelial cells (Factor Xa generation); assay type: cell-based, mouse; conditions: for Factor Xa generation due to Factor VIIa production: mix with 2 μg/ml factor VII and 0.01 μg/ml factor VIIa; for Factor Xa generation: mix with 0.5 μg/ml factor VIIa
Experimental: (§2) To assay the coagulation induction of stimulated versus unstimulated endothelial cells, bend 3 cells were seeded in 48 well tissue culture plates at a density of 1×10^4 cells per well and allowed to adhere overnight. Cells were stimulated with endotoxin (0.5 μg/ml and 10 μg/ml) or TNFα (500 U/ml) for 4 h at 37° C. […] After incubation for 45 min at room temperature, cells were washed and incubated with various coagulation factor mixes as follows: (1) 0.5 μg/ml factor VIIa in a mix containing 2.8 μg/ml factor IX, 3.4 μg/ml factor X, 50 μM phospholipids, in calcium buffer (as specified above); (2) 0.01 μg/ml factor VIIa in a mix as in (1); (3) 2 μg/ml factor VII (Calbiochem-Novabiochem, San Diego, Calif.) in a mix as in (1); (4) 2 μg/ml factor VII. 0.01 μg/ml factor VIIa in a mix as in (1). The supernatant of wells was transferred into a 96 well ELISA plate. Substrate S2765 was added and Factor Xa generation measured alongside different concentrations of Factor Xa standard (7 nkatS2222; 0.7 nkatS2222; 0.07 nkatS2222). OD405 nm values were calculated as nkatS2222 Factor Xa from the Factor Xa standard curve.
as §2, with “bEnd” for “To assay the coagulation induction of stimulated versus unstimulated endothelial cells, bend”, “with” for “with various”, “mix” for “mixes”, “follows:” for “follows: (1)”, “buffer;” for “buffer (as specified above); (2) 0.01 μg/ml factor VIIa in a mix as in (1); (3) 2 μg/ml factor VII (Calbiochem-Novabiochem, San Diego, Calif.) in a mix as in (1); (4) 2 μg/ml factor VII. 0.01 μg/ml factor VIIa in a mix as in (1). The”

[2] = test system: 2F2B mouse endothelial cells; experiment: Binding of tTF to tissue factor-expressing endothelial cells (FACS, cell bound coagulation assay); assay type: cell-based; conditions: FACS analysis or cell bound coagulation assay
Experimental: Cells were washed and coagulation factor mix (as described above) was added. S2765 substrate was added and Factor Xa generation was measured as described above.
2F2B cells were stimulated with LPS (20 μg/ml) or TNFα (500 U/ml) for 4 h at 37° C. […] Fluorescent cells were detected on a flow cytometer (Becton Dickinson, San Jose, Calif.).

[3] = test system: A20 lymphoma cells (I-A^d positive), mouse or human plasma; experiment: In vitro coagulation assay on A20 cells with capture bispecific antibody B21-2/10H10; assay type: cell-based; conditions: for coagulation time: cells alone 190 seconds
immobilized tTF = target: T1, immobilized tTF (Homo sapiens, UniProt P13726); experiment: Real time binding of tTF to immobilized tTF (surface plasmon resonance); conditions: tTF alone or preincubated with endotoxin or factor VIIa
T1 construct: Recombinant soluble Tissue Factor protein (amino acids 1-219) was extracted from the periplasmic space of transformed E. coli; made in house; host or cells: E. coli (periplasmic secretion, vector pswc7)

TNFα = TNFα serum levels in treated animals (Quantikine-M kit); assay type: in vivo, mice; conditions: tTF containing no endotoxin (n=6); any of the time points
Experimental: as §1
TNFα levels in serum were deter-mined using the Quantikine-M kit (R&D Systems, Minneapolis, Minn.) according to the manufacturer's instructions.

T1 sequence (P13726 33-251): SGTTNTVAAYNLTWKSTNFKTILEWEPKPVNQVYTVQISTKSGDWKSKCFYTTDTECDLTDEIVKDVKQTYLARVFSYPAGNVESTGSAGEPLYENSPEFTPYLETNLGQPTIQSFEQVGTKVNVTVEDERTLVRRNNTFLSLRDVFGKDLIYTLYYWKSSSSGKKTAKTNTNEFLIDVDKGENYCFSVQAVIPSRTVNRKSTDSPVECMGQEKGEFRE

**Q.** How did the TAT [1] turn out when “tTF: extracellular domain of the mature Tissue Factor protein (amino acid 1-219), recombinant; depyrogenated in Example X” was run?
**A.** The TAT was 25.4 ng/mL.

**Q.** What about the “control reagents causing thrombosis” value (L540 tumor blood vessels) of the same substance?
**A.** Its value is “None”.

**Q.** What about the “average tumor tissue necrosis” value (F9 sarcoma tumors) of the same substance?
**A.** The value was 45%.

**Q.** And the “Factor Xa generation due to Factor VIIa production” value (from here on “Factor Xa generation due”) (bEnd 3 cells; cells stimulated with 0.5 μg/ml LPS (row Medium = stimulant alone))?
**A.** Its value is 3.00 nkats2222.

**Q.** And the “Factor Xa generation” value (bEnd 3 cells; cells stimulated with 0.5 μg/ml LPS, then incubated with row agent (row Medium = stimulant alone))?
**A.** Its value is 2.00 nkats2222.

**Q.** And the “Factor Xa generation” value (bEnd 3 cells; cells stimulated with 10 μg/ml LPS, then incubated with row agent (row Medium = stimulant alone))?
**A.** The value was 2.91 nkats2222.

**Q.** What about the “Factor Xa generation” value (bEnd 3 cells; cells stimulated with TNFα (500 U/ml), then incubated with row agent (row Medium = stimulant alone)) of the same substance?
**A.** Its value is 0.67 nkats2222.

**Q.** What about the “Factor Xa generation due” value (bEnd 3 cells; cells stimulated with TNFα (row Medium = stimulant alone)) of the same substance?
**A.** Its value is 1.91 nkats2222.

**Q.** What about the “Factor Xa generation” value (bEnd 3 cells; cells stimulated with medium, then incubated with row agent) of the same substance?
**A.** Its value is 0.40 nkats2222.

**Q.** What about the “Factor Xa generation due” value (bEnd 3 cells; cells stimulated with medium) of the same substance?
**A.** The value was 0.70 nkats2222.

**Q.** What about the “binding to endothelial cells expressing tissue factor” value [2] of the same substance?
**A.** Its value is “no binding of tTF to endothelial cells”.

**Q.** And the coagulation time ([3]; 20,000 molecules of tTF per cell)?
**A.** Its coagulation time is 140 s.

**Q.** And the coagulation time ([3]; 300,000 molecules of tTF per cell)?
**A.** The coagulation time was 40 s.

**Q.** What about the “concentration at which plasma coagulated in 50 seconds” value ([3]; bound via B21-2/10H10 to A20 cells, separate studies per block) of the same substance?
**A.** The value was 3 nM.

**Q.** And the “effect on coagulation time” value ([3]; cells incubated with tTF alone (not bound))?
**A.** The value was “no effect on coagulation time”.

**Q.** And the “time to visible fibrin strands after addition of mouse plasma” value ([3]; tTF bound to A20 cells by B21-2/10H10, untreated cells 164 seconds)?
**A.** Its value is 36 s.

**Q.** And the “binding to immobilized tTF” value (immobilized tTF)?
**A.** The value was “did not bind to or homodimerize with immobilized tTF”.

**Q.** And the TNFα in serum (TNFα)?
**A.** The TNFα in serum was “could not be detected”.
